Among the data in PubChem BioAssay (NCI) are GI50 and TGI values, retold here.

The structures appear in SMILES notation. Several values for one entry are separate records, joined by “and”; a condition that tells them apart may be missing. Equal values may be shown once.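 Test compounds were applied to cells in 96-well plates for 48 hours at 5 doses. GI50 is the concentration that inhibits growth by half. TGI: concentration producing complete growth inhibition.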

Some test systems named below: K-562 leukemia; DU-145 prostate; SR leukemia; MOLT-4 leukemia; SN12C renal; A549 NSCLC; T-47D breast; UO-31 renal; SK-OV-3 ovarian; SK-MEL-28 melanoma.
Holding throughout (experiment): NCI anticancer screen, dose series, 48 h

Consider `Nc1nn(C(=O)Nc2ccc(Cc3ccccc3)cc2)c2ccc(Cl)cc12`, for which the GI50 was 34.3 nM with K-562 leukemia; 11700 nM in the test on DU-145 prostate; 12600 nM in the test with SR leukemia; 4870 nM with MOLT-4 leukemia; 14.2 µM in the test with SN12C renal; 5.76 µM with A549 NSCLC. Moreover, the GI50 with T-47D breast was 95.7 nM; with UO-31 renal, 5.9 µM; in the test on SK-OV-3 ovarian, 17.9 µM; with SK-MEL-28 melanoma, 7.91 µM. Further, the TGI in the test on K-562 leukemia is 16.9 µM; in the test on DU-145 prostate it was 33.8 µM; in the test with SR leukemia, 26.5 µM; in the test on MOLT-4 leukemia it was 47 µM; with SN12C renal it was 48.1 µM; in the test on A549 NSCLC, greater than 89.2 µM. In addition, the TGI in the test on T-47D breast is 28.8 µM; in the test on UO-31 renal it was 82.7 µM; with SK-OV-3 ovarian, 52 µM; in the test on SK-MEL-28 melanoma, greater than 100 µM.

With `O=c1oc2c(Br)c(O)c(Br)cc2c2ccccc12`, the TGI worked out at 50.9 µM with K-562 leukemia; 70.8 µM with DU-145 prostate; 71.6 µM with SR leukemia; 67.1 µM with MOLT-4 leukemia; 84.4 µM with SN12C renal; 87.1 µM in the test on A549 NSCLC. For the same compound, the TGI in the test with T-47D breast was 96.5 µM; in the test on SK-MEL-28 melanoma it was greater than 100 µM.

With `COc1ccc(Nc2nc(NCc3ccccc3)c3ccccc3n2)cc1`, the GI50 with K-562 leukemia was 2010 nM; in the test on DU-145 prostate it was 8750 nM; in the test on SR leukemia it was 2190 nM; in the test with MOLT-4 leukemia it was 2120 nM; in the test with SN12C renal it was 5.19 µM; in the test with A549 NSCLC, 3.78 µM. Also, the GI50 with T-47D breast is 1740 nM; in the test on UO-31 renal, 5.09 µM; with SK-OV-3 ovarian, 10.4 µM; with SK-MEL-28 melanoma it was 2.03 µM. Further, the TGI with K-562 leukemia came out at 5.71 µM; with DU-145 prostate, 21.9 µM; in the test on SR leukemia, 6.01 µM; with MOLT-4 leukemia it was 5.28 µM; in the test with SN12C renal, 19.6 µM; in the test on A549 NSCLC, 16.5 µM. Further, the TGI in the test with T-47D breast was found to be 3.4 µM; with UO-31 renal, 19.8 µM; in the test on SK-OV-3 ovarian, 22.1 µM; in the test on SK-MEL-28 melanoma it was 4.1 µM.

As to `O=C1C(CN(Cc2ccccc2)Cc2ccccc2)CCCC1CN(Cc1ccccc1)Cc1ccccc1` (centres undefined), the GI50 in the test on K-562 leukemia is 54300 nM and > 86300 nM; in the test with SR leukemia, 77300 nM; with SN12C renal it was 13.1 µM and > 79 µM; in the test on UO-31 renal it was 16.9 µM and 47.6 µM; with SK-MEL-28 melanoma, 21 µM and > 100 µM. The TGI in the test on K-562 leukemia was greater than 100 µM; in the test on DU-145 prostate, greater than 100 µM; with SR leukemia, greater than 100 µM; with MOLT-4 leukemia it was greater than 100 µM; with SN12C renal, 25.8 µM and > 100 µM; with A549 NSCLC, greater than 100 µM. In addition, the TGI in the test on T-47D breast is greater than 100 µM; with UO-31 renal, 27.3 µM and > 100 µM; in the test with SK-OV-3 ovarian, > 77 µM and 97.5 µM; in the test with SK-MEL-28 melanoma, 38.8 µM and > 100 µM.

As to `O=C(O)c1ccc([N+](=O)[O-])c(P(=O)(O)O)c1`, the TGI in the test with K-562 leukemia, in the test on DU-145 prostate, in the test on SR leukemia, in the test with MOLT-4 leukemia, in the test on SN12C renal and in the test with A549 NSCLC was greater than 100 µM in each case. In addition, the TGI in the test on T-47D breast, with UO-31 renal, in the test with SK-OV-3 ovarian and in the test on SK-MEL-28 melanoma was greater than 100 µM in each case.

For the compound `NC(=O)Cc1ccccc1Oc1nccc(-c2c(-c3ccc(F)cc3)ncn2C2CCNCC2)n1`, the GI50 in the test with K-562 leukemia was greater than 25000 nM; in the test with DU-145 prostate, greater than 25000 nM; in the test on SR leukemia, greater than 25000 nM; with MOLT-4 leukemia, greater than 25000 nM; in the test on SN12C renal, greater than 25 µM; with A549 NSCLC it was greater than 25 µM. In addition, the GI50 with T-47D breast is greater than 25000 nM; in the test with UO-31 renal it was greater than 25 µM; with SK-OV-3 ovarian, greater than 25 µM; in the test on SK-MEL-28 melanoma it was greater than 25 µM. The TGI in the test on K-562 leukemia, in the test on DU-145 prostate, in the test on SR leukemia, in the test on MOLT-4 leukemia, with SN12C renal and in the test on A549 NSCLC was greater than 25 µM in each case. Moreover, the TGI in the test with T-47D breast, in the test with UO-31 renal, with SK-OV-3 ovarian and with SK-MEL-28 melanoma was greater than 25 µM in each case.

Turning to `COC(=O)C1=C(C(=O)Nc2cccnc2)C2OC1(C(Cc1ccccc1)Oc1ccccc1)C1OC21` (centres undefined), the GI50 in the test on K-562 leukemia was 2030 nM; in the test on DU-145 prostate, 1770 nM; in the test with SR leukemia it was 918 nM; in the test with MOLT-4 leukemia it was 1750 nM; in the test with SN12C renal, 3.67 µM; in the test on A549 NSCLC, 17.1 µM. In addition, the GI50 in the test on T-47D breast is 2020 nM; in the test on UO-31 renal, 1.24 µM; in the test on SK-OV-3 ovarian, 18.3 µM; in the test on SK-MEL-28 melanoma, 1.83 µM. For the same compound, the TGI in the test with K-562 leukemia is 6.68 µM; in the test with DU-145 prostate it was 3.27 µM; with SR leukemia it was 5.13 µM; with MOLT-4 leukemia it was 5.2 µM; in the test with SN12C renal, 14.2 µM; in the test with A549 NSCLC, 31.2 µM. The TGI in the test on T-47D breast worked out at 4.86 µM; with UO-31 renal, 2.49 µM; in the test on SK-OV-3 ovarian, 48.2 µM; with SK-MEL-28 melanoma, 3.48 µM.

For `S=c1cn[nH]c2ccc(Br)cc12`, the TGI with K-562 leukemia, with DU-145 prostate, in the test on SR leukemia, with MOLT-4 leukemia, with SN12C renal and in the test on A549 NSCLC was greater than 100 µM in each case. Also, the TGI in the test with T-47D breast, with UO-31 renal, in the test with SK-OV-3 ovarian and in the test with SK-MEL-28 melanoma was greater than 100 µM in each case.

In the case of `COc1cc(C2=Nc3c/c(=C\c4c(O)[nH]c5ccc(Cl)cc45)ccc3=N2)cc(OC)c1OC`, the GI50 in the test on K-562 leukemia was 4210 nM; in the test on DU-145 prostate it was 2340 nM; with SR leukemia it was 1940 nM; in the test on MOLT-4 leukemia, 2430 nM; in the test with SN12C renal, 2.11 µM; in the test on A549 NSCLC, 2.87 µM. Also, the GI50 in the test on T-47D breast was 9130 nM; in the test on UO-31 renal, 2.96 µM; in the test with SK-OV-3 ovarian, 16.2 µM; with SK-MEL-28 melanoma, 3.2 µM. In addition, the TGI stood at 25.5 µM in the test with K-562 leukemia; 5.19 µM in the test with DU-145 prostate; 5.05 µM with SR leukemia; 12.9 µM in the test on MOLT-4 leukemia; 6.5 µM in the test on SN12C renal; 10.7 µM in the test on A549 NSCLC. The TGI in the test on T-47D breast was found to be 37.3 µM; in the test with UO-31 renal, 16.1 µM; in the test on SK-OV-3 ovarian, 32.5 µM; with SK-MEL-28 melanoma, 12.7 µM.

As to `COC(=O)c1c2c(c[n+]([O-])c1C)C(=O)C(NCc1ccccc1)=CC2=O`, the GI50 in the test with K-562 leukemia is 529 nM; with DU-145 prostate it was 1050 nM; with SR leukemia it was 1290 nM; with MOLT-4 leukemia, 412 nM; in the test with SN12C renal, 0.318 µM; with A549 NSCLC it was 1.12 µM. The GI50 is 327 nM with T-47D breast, 1.25 µM in the test on UO-31 renal, 1.98 µM in the test with SK-OV-3 ovarian and 1.6 µM in the test with SK-MEL-28 melanoma. Besides, the TGI is 2.25 µM with DU-145 prostate; greater than 100 µM in the test on SR leukemia; 2.59 µM in the test on MOLT-4 leukemia; 1.22 µM in the test with SN12C renal; 3.61 µM in the test with A549 NSCLC; 1.53 µM in the test on T-47D breast. The TGI came out at 2.58 µM with UO-31 renal, 4.79 µM in the test on SK-OV-3 ovarian and 3.29 µM with SK-MEL-28 melanoma.

With `Nc1ccn(C2OC(CO[P+](=O)OC3C(CO[P+](=O)OC4C(CO[P+](=O)OC5C(CO[P+](=O)OC6C(CO[P+](=O)OC7C(CO[P+](=O)OC8C(CO[P+](=O)OC9C(CO[P+](=O)OC%10C(CO[P+](=O)OC%11C(CO)OC(n%12ccc(N)nc%12=O)C%11(F)F)OC(n%11ccc(N)nc%11=O)C%10(F)F)OC(n%10ccc(N)nc%10=O)C9(F)F)OC(n9ccc(N)nc9=O)C8(F)F)OC(n8ccc(N)nc8=O)C7(F)F)OC(n7ccc(N)nc7=O)C6(F)F)OC(n6ccc(N)nc6=O)C5(F)F)OC(n5ccc(N)nc5=O)C4(F)F)OC(n4ccc(N)nc4=O)C3(F)F)C(O)C2(F)F)c(=O)n1` (centres undefined), the GI50 in the test with K-562 leukemia is 2710 nM; in the test with DU-145 prostate, 23.9 nM; with SK-OV-3 ovarian, 0.255 µM; with SK-MEL-28 melanoma it was greater than 100 µM. The TGI with K-562 leukemia is greater than 100 µM; in the test on DU-145 prostate, 0.13 µM; with SR leukemia it was 0.507 µM; in the test on A549 NSCLC it was greater than 100 µM; in the test with T-47D breast, greater than 100 µM; with SK-OV-3 ovarian it was greater than 100 µM. The compound further registered a TGI with SK-MEL-28 melanoma greater than 100 µM.

Consider `O=[N+]([O-])c1ccc(Oc2cccnc2)c([N+](=O)[O-])c1`, for which the GI50 with K-562 leukemia is 3220 nM; in the test on DU-145 prostate, 2960 nM; with SR leukemia it was 4190 nM; with MOLT-4 leukemia, 6080 nM; with SN12C renal, 4.3 µM; in the test on T-47D breast, 7300 nM. In addition, the figures for the GI50 in the test with UO-31 renal, with SK-OV-3 ovarian and in the test on SK-MEL-28 melanoma were 3.07 µM, 3.28 µM and 9.49 µM, respectively. The TGI with K-562 leukemia is greater than 100 µM; with DU-145 prostate, 7.44 µM; with SR leukemia it was greater than 100 µM; with MOLT-4 leukemia, 32.2 µM; in the test on SN12C renal, 23.2 µM; in the test with T-47D breast, 30.1 µM. Further, the TGI is 16.8 µM in the test with UO-31 renal, 9.73 µM in the test with SK-OV-3 ovarian and 23.9 µM in the test on SK-MEL-28 melanoma.

Consider `CCOC(=O)CC(=O)N(c1ccc(OC)cc1)C(C(=O)OC)c1ccccc1` (centres undefined), for which the TGI in the test on K-562 leukemia, in the test with DU-145 prostate, with SR leukemia, in the test with SN12C renal, with A549 NSCLC and with T-47D breast was greater than 100 µM each time. The TGI with UO-31 renal and in the test with SK-MEL-28 melanoma was greater than 100 µM each time.
